Earlier results, collected in US9381163B2, “Floating capsules encapsulating particles loaded with one or more drugs” (NANYANG TECHNOLOGICAL UNIVERSITY, priority 2012, dated 2016).

- log P: 1.6
Substance: metoprolol tartrate salt
